This note sets out measurements from publication PMC8775487, “Insights into Asparaginase from Endophytic Fungus Lasiodiplodia theobromae: Purification, Characterization and Antileukemic Activity” (International Journal of Environmental Research and Public …, 2022).

The subject of the assay is T1, purified asparaginase from L. theobromae.
T1 construct: native extracellular enzyme purified from culture filtrate of asparagine-induced endophytic fungus (acetone, Q-FF, Sephadex G-100); about 70 kDa on SDS-PAGE
The experiment in a line: direct Nesslerization of released ammonia; Lineweaver-Burk and Michaelis-Menten plots. Particulars: asparagine 0-20 mM; standard assay pH 7, 37 °C. It counts as biochemical, Lasiodiplodia theobromae. The source says:
direct Nesslerization of released ammonia; Lineweaver-Burk and Michaelis-Menten plots on purified asparaginase from L. theobromae | Michaelis constant Km and maximum velocity Vmax of the purified asparaginase from L. theobromae were […]

With `NC(=O)C[C@H](N)C(=O)O` [asparagine], the Michaelis-Menten constant (Km) (as a rule, the concentration of substrate that gives half-maximal velocity) amounted to 9.37 µM.
